System: DENV-2 RL strain
Assay: Survival study, lethal DENV challenge with 4G2 antibody
Format: in vivo, AG129 mice
Conditions: 2'CMC

C[C@@]1(O)[C@H](O)[C@@H](CO)O[C@H]1n1ccc(N)nc1=O [2'CMC]
% Survival (d p.i. 0): 100% | % Survival (d p.i. 1): 100% | % Survival (d p.i. 2): 100% | % Survival (d p.i. 3): 100% | % Survival (d p.i. 4): 100% | % Survival (d p.i. 5): 100% | % Survival (d p.i. 6): 100% | % Survival (d p.i. 7): 100% | % Survival (d p.i. 8): 100% | % Survival (d p.i. 9): 100% | % Survival (d p.i. 10): 100% | % Survival (d p.i. 11): 100% | % Survival (d p.i. 12): 100% | % Survival (d p.i. 13): 90% | % Survival (d p.i. 14): 80% | % Survival (d p.i. 15): 80% | % Survival (d p.i. 16): 80% | % Survival (d p.i. 17): 80% | % Survival (d p.i. 18): 60% | % Survival (d p.i. 19): 60% | % Survival (d p.i. 20): 60% | % Survival (d p.i. 21): 60% | % Survival (d p.i. 22): 60% | % Survival (d p.i. 23): 60% | % Survival (d p.i. 24): 50% | % Survival (d p.i. 25 = end of study): 50%

Source: publication PMC10033419, “Blocking NS3–NS4B interaction inhibits dengue virus in non-human primates” (Nature, 2023)
